Assay results published in publication PMC7049299, “UGT74AF3 enzymes specifically catalyze the glucosylation of 4-hydroxy-2,5-dimethylfuran-3(2H)-one, an important volatile compound in Camellia sinensis” (Horticulture Research, 2020).

Tests used:
UGT74AF3b [1] = molecular target: T1, UGT74AF3b (Camellia sinensis, UniProt A0A4S4DWR1); assay: relative glycosyltransferase activity; type: biochemical; conditions: UDP-Glc, UDP-Gal or UDP-GA as sugar donor
T1 construct: gene TEA_014443; full-length, N-terminal GST tag (pGEX-4T-1), E. coli BL21(DE3) pLysS, GST-resin purified; Ala at residue 456
T1 sequence (A0A4S4DWR1 entry or part of it): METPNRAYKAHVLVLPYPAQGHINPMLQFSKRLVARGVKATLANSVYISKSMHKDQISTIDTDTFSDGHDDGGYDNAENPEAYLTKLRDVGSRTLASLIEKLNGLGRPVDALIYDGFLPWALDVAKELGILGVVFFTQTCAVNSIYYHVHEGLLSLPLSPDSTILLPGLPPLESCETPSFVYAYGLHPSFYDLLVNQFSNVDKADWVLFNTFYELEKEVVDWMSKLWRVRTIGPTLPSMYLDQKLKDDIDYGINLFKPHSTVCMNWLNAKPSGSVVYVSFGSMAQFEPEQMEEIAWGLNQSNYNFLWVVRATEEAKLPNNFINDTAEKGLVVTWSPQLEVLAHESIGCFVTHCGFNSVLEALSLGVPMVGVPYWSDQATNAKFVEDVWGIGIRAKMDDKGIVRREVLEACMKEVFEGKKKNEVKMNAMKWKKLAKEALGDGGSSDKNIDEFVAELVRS

UGT74AF3b [2] = molecular target: T1, UGT74AF3b; assay: glucosyltransferase kinetics (UDP-Glo assay / LC-MS; readout for kinetics not told); type: biochemical; conditions: optimized conditions (optimum pH 8.5, 30 °C); sugar donor not stated for kinetics, presumably UDP-glucose
Source text: glucosyltransferase kinetics (UDP-Glo assay / LC-MS; readout for kinetics not told) on UGT74AF3b

- Km (UGT74AF3b [2]): 5.14 ± 1.58 µM
SMILES: CC1=C(O)C(=O)C(C)O1 (centres unmarked) [HDMF, 4-Hydroxy-2,5-dimethylfuran-3(2H)-one]
- relative enzymatic activity (UGT74AF3b [1]): The A456V mutant exhibited enhanced glucosylation activity toward HDMF, EHMF, and HMF
